Test results reported in patent US20160243023A1, “Novel Skin Remodeling Strategy” (ELC MANAGEMENT LLC, priority 2015, published 2016).

Assays:
[1] = test system: human dermal fibroblasts (HDFs); assay: Glycated collagen phagocytosis by HDFs (Phagocytosis Index); assay type: cell-based; conditions: beads pre-treated overnight with methylglyoxal; 3 hours incubation with HDFs
Description: • 1. On day 1, HDFs were plated in 24 well plates. • 2. On day 2, HDFs, after reaching confluence, were maintained for 48 hours under starvation conditions. • 3. On day 4, HDFs were incubated for 3 hours with collagen-coated microspheres (2×10^6 beads) as control or with collagen-coated microspheres (2×10^6 beads) that had been pre-treated overnight with glycation inducer, methylglyoxal. HDFs were then washed with PBS to remove unbound and loosely bound beads. • 4. Cell viability was measured using Presto Blue reagent; phagocytosis was measured by the determination of the fluorescence reading of internalized beads, using the procedure described above in Example 1. Results, shown in FIG. 11, are expressed as Phagocytosis Index (i.e., the ratio of the phagocytosis fluorescent signal divided by the viability signal).

[2] = test system: human dermal fibroblasts (HDFs); assay: TGFβ1-induced collagen synthesis in HDF after pretreatment with inducers of collagen phagocytosis (PIP EIA); assay type: cell-based; conditions: TGFβ1 used alone at 0.25 ng/ml, 72 hours
Description: • 1. On day 1, HDFs were plated in 96 well plates. • 2. On day 2, HDFs, after reaching confluence, were treated with medium (control) or with actives (test materials previously found by the inventors to be phagocytosis enhancers*; data not shown) under starvation conditions for 48 hours (step 1). • 3. On day 4, the actives were removed and the cells were treated with medium or with a collagen inducer, 0.25 ng/ml TGFβ1 in medium, for 72 hours (step 2). • 4. On day 7, medium was collected and analyzed for collagen release using a PIP EIA. The amount of PIP (pro-collagen ng/ml medium) is quantitated by measuring the absorbance using an EIA plate reader. Accurate sample concentrations of PIP can be determined by comparing the specific absorbances to a standard curve. Cell viability also was assessed using a standard 3-(4,5-dimethylthiazol-2-yl)-2,5-diphenyltetrazoliumbromide (MTT) assay. The assay involves the conversion of the water soluble MTT, a yellow tetrazole, to an insoluble purple formazan in living cells. The formazan is then solubilized and the concentration determined by measuring the absorbance at a wavelength of from about 500-600 nm using a spectrophotometer. […]

Compound | uptake by HDFs of pre-treated collagen-coated beads versus beads coated with unmodified collagen (Phagocytosis Index) [1] | increase in collagen synthesis compared with the non-treated control [2] [%]
CC(=O)C=O [methylglyoxal] | substantially the same rate | –
TGFβ1: Transforming Growth Factor Beta 1, collagen inducer | – | 30
